Results as given in patent publication US11116767B2, “3,5-disubstituted pyrazoles useful as checkpoint kinase 1 (Chk1) inhibitors, and their preparations and applications” (PHARMAENGINE, INC., priority 2016, dated 2021).

Legend:
Chk1 = target: T1, Chk1 (Homo sapiens, UniProt O14757); assay: biochemical; conditions: ADP-Glo; read-out: Chk1 in vitro enzyme activity (grade)
T1 construct: purchased BPS 40039
T1 sequence (O14757 1-476): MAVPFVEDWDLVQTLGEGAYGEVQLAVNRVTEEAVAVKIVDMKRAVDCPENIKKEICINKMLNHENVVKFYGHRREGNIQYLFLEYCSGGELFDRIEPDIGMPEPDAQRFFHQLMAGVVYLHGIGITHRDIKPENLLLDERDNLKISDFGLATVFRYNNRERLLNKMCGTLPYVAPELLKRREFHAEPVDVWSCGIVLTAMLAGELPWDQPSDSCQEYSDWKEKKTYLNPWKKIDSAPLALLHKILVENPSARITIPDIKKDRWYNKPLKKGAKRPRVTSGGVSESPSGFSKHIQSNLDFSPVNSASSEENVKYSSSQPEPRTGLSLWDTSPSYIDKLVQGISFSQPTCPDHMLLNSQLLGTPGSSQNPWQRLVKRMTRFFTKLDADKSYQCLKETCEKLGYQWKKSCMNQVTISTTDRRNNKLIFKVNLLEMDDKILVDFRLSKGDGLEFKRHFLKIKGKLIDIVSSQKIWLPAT

Chk2 = target: T2, Chk2 (Homo sapiens, UniProt O96017); assay: biochemical; conditions: ADP-Glo; read-out: Chk2 in vitro enzyme activity (grade)
T2 construct: purchased Carna 02-162

HT-29 = assay: Cancer cell growth inhibition assay (CellTiter-Glo), HT-29; assay type: cell-based, Human; conditions: Homo sapiens, HT-29; 72 hours, cellular ATP content; read-out: HT-29 anti cell proliferation activity (grade)
Method: (§1) Human cancer cell lines were purchased from American Type Culture Collection (Manassas, Va.). The trypsinized cells were diluted to required volume at densities of 44,000 cells/ml. 90 ul cell slurry was dispensed per well in 96-well flat-bottomed plates with the recommended culture medium. The cells were incubated for 24 hours at 37° C. in 5% CO2 under humidified condition. The cells were then incubated with compounds at various concentrations for 72 hours in culture medium supplemented with 0.5% (v/v) FBS. Growth inhibition was assessed by assay of cellular ATP content using CellTiter-Glo reagent to each well. Luminesce was read on Envision. The inhibition rate (%)=(Max signal compound signal)/(Max signal Min signal)×100.

MDA-MB-231 = assay: Cancer cell growth inhibition assay (CellTiter-Glo), MDA-MB-231; assay type: cell-based, Human; conditions: Homo sapiens, MDA-MB-231; 72 hours, cellular ATP content; read-out: MDA-MB-231 anti cell proliferation activity (grade)
Method: as §1

[1] = tested on: ChK1 phosphorylation (pChK1 S296) in HT-29 colon cancer cells; assay: Western blot analysis of ChK1 phosphorylation in HT-29 cells with SN-38; assay type: cell-based, Human; conditions: HT-29 cells pre-incubated with SN-38 (50 nM) 24 hours, then ChK1 inhibitor 3 hours
[2] = Pharmacokinetics study in rats, intravenous; assay type: in vivo, SD rats; conditions: rat, in vivo, iv
Method: Compounds were formulated in 30% SEB-β-CD (Zhiyuan Bio-technology) with 1 molar equivalents of HCl (pH adjusted to 3-5). Male SD rats (280-350 g) were purchased from Medical Laboratory Animal Center of Guangdong. Three rats were used for each PK study. […] At various time points after compound administration, approximately 0.2˜0.3 mL of blood was collected by cutting the end of tail into tubes containing K2-EDTA. The plasma was separated via centrifugation and stored at −80° C. A PE Sciex API-3000 LC-MS/MS system (Applied Biosystems, Inc.) was used to analyze compound concentrations in plasma.
PK studies of ChK1 inhibitors were conducted in rats after intravenous administration at 10 mg/kg. […]. […]

[3] = tested on: HT-29 colon cancer xenograft; assay type: in vivo
Method: (§2) Female Balb/c nude mice at 7-8 weeks of age (Body weights between 17-18g) were purchased from Hunan SJA Laboratory Animal Co., Ltd. HT-29 cells were cultured in DMEM culture medium containing 10% fetal bovine serum and LoVo cells were cultured in RPMI 1640 culture medium containing 10% fetal bovine serum. The cells were harvested and washed with serum free culture medium. Finally, the cells were suspended at a cell density of […] in serum free culture medium for implantation. 5 million cells per animal suspended in 0.1 ml serum free culture medium and 1.1 matrigel were injected into the right flank of the animals after a one, week acclimation period. When average tumor volume reached acceptable tumor size (100-200 mm^3) and shape, the animals were randomly assigned into treatment groups.
HT-29 colon cancer cells were implanted to establish the xenograft model in Balb/c nude mice. Compound 3 and LY2606368 were dissolved in 30% SEB-β-CD (Zhiyuan Bio-technology) with 1 molar equivalents of HCl. GDC-575 was suspended in 0.5% methyl cellulose/0.1% Tween 80 in water. […]. The animals well tolerated each treatment in the HT-29 colon cancer in nude mice model.

[4] = tested on: LoVo colon cancer xenograft; assay: LoVo colon xenograft model; assay type: in vivo, Balb/c nude mice
Method: as §2
Lovo colon cancer cells were implanted to establish the xenograft model in Balb/c nude mice. Compound 3 and LY2606368 were dissolved in 30% SEB-β-CD (Zhiyuan Bio-technology) with 1 molar equivalents of HCl. […]

[5] = Human liver S9 metabolic stability; assay type: in vitro ADME; conditions: for Percentage Remaining %: 1 μM, 37° C.
Method: Compounds (1 μM) were incubated with human liver S9 (from BD Gentest) at final liver microsomal protein concentration of 0.5 mg/mL for 0, 5, 15, 30, 45 min at 37° C. The remaining compounds in the reaction were measured by LC-MS/MS. The half-life (T½) 0.693/K (K is the rate constant from a plot of ln [concentration] vs. incubation time).

T2 sequence (O96017 whole entry): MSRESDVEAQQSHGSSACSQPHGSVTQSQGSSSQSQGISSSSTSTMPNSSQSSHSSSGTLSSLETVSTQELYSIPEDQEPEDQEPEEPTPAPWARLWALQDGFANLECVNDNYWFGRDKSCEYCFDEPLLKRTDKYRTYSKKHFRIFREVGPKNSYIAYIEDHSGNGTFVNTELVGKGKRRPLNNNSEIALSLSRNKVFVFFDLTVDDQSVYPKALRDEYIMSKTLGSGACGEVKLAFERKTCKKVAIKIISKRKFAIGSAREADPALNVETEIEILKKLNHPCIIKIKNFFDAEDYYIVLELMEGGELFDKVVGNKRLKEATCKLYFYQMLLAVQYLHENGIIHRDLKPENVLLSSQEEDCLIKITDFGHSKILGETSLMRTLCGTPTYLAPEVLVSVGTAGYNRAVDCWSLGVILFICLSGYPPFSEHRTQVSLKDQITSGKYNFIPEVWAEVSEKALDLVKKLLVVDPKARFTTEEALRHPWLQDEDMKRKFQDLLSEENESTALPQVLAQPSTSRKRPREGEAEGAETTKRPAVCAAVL

COc1cc(F)cc(OCCCN)c1-c1cc(Nc2cnc(C#N)cn2)n[nH]1 [Compound 3, 5-(5-(2-(3-Aminopropoxy)-4-fluoro-6-methoxyphenyl)-1H-pyrazol-3-ylamino)pyrazine-2-carbonitrile]
IC50 (Chk1): ≤ 1 nM
IC50 (Chk2): 50 to 100 nM
IC50 (HT-29): 10 to 50 nM
IC50 (MDA-MB-231): 50 to 100 nM
inhibition of ChK1 phosphorylation (FIG. 2) [1]: potently inhibited ChK1 phosphorylation
AUC(0-inf) ([2]; male, SD, 10 mg/kg): 4640 ng·h/mL
AUC(0-t) ([2]; male, SD, 10 mg/kg): 4530 ng·h/mL
MRT ([2]; male, SD, 10 mg/kg): 2.8 h
clearance ([2]; male, SD, 10 mg/kg): 38.3 mL/min/kg
half-life ([2]; male, SD, 10 mg/kg): 3.8 h
Vd ([2]; male, SD, 10 mg/kg, Vd): 12.3 L/kg
Vd ([2]; male, SD, 10 mg/kg, Vss): 6.4 L/kg
half-life and exposure compared with LY2606368 [2]: longer half-life and higher exposure than LY2606368
T/C value ([3]; 40 mg/kg, iv, 2 times/week): 31%
Tumor volume (X ± SD) ([3]; 40 mg/kg, iv, 2 times/week): 407 ± 17 mm^3
Tumor weight (X ± SD) ([3]; 40 mg/kg, iv, 2 times/week): 272 ± 16 mg
efficacy compared with references at their MTD ([3]; mouse, in vivo): more efficacious than the reference LY-2606368
T/C value ([4]; 40 mg/kg, IV, twice a week): −77%
tumor growth inhibition ([4]; LY2606368 15 mg/kg, Compound 3 10, 20, 40 mg/kg, IV, twice a week): significant tumor growth inhibition in a dose-dependent manner
efficacy compared with LY2606368 at MTD dose ([4]; MTD dose): more efficacious than LY2606368
Percentage Remaining % ([5]; 0 min): 100.00%
Percentage Remaining % ([5]; 5 min): 96.98%
Percentage Remaining % ([5]; 15 min): 94.32%
Percentage Remaining % ([5]; 30 min): 65.38%
Percentage Remaining % ([5]; 45 min): 77.05%
metabolic stability compared with LY2606368 ([5]; human liver S9): more metabolic stable than LY2606368
half-life at 1 μM ([5]; human liver S9, 1 μM): 2.76 h
